What was measured:
pancreatic lipase = target: T1, pancreatic lipase (Homo sapiens, UniProt P16233); details: cited from earlier work
T1 sequence (P16233 17-465): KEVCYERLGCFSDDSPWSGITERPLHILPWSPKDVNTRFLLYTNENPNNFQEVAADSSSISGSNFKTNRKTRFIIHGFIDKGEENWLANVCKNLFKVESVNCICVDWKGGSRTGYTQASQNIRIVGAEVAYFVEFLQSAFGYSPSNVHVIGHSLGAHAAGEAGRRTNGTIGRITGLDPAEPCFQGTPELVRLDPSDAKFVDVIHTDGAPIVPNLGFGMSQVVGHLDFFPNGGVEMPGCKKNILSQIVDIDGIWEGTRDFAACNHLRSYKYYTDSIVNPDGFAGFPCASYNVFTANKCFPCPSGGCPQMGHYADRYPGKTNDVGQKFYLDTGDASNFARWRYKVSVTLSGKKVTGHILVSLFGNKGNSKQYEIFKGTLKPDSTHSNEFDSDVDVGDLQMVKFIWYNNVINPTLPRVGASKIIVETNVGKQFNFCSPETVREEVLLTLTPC

olive oil-loaded mice = details: doses of 5-20 mg/kg; cited from earlier work
mice fed a high fat diet = details: 20 mg/kg/day; after 14 days; cited from earlier work
human PPARγ = target: T2, human PPARγ (Homo sapiens, UniProt P37231); details: cited from earlier work
T2 sequence (P37231 1-505): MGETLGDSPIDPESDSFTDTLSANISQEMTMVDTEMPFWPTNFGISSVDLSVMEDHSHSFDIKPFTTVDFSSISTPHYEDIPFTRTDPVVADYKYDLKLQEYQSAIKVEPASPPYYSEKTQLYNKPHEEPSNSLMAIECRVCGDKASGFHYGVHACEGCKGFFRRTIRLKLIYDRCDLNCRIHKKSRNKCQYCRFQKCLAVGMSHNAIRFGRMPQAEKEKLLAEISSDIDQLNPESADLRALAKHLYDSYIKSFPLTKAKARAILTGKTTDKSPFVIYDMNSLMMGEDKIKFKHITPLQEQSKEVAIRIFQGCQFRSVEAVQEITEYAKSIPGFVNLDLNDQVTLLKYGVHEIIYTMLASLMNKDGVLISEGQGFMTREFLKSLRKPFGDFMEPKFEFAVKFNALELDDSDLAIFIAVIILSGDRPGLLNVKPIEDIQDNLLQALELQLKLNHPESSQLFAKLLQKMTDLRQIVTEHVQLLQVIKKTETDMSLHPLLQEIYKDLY

LDL = experiment: Cu^2+-induced LDL oxidation in vitro (conjugated dienes, absorbance at 234 nm); format: biochemical; set-up: key to Lag phase / Oxidation rate / Maximum quantity of dienes: NC: Not calculated since the samples totally inhibits the LDL from oxidation
Procedure: LDL was concentrated from the plasma of normolipidemic donors by density gradient ultracentrifugation. Prior to oxidation, LDL was diluted in a phosphate buffered saline (PBS) and dialyzed against PBS at 4° C. to remove EDTA. The protein content was determined and adjusted to obtain 0.125 mg of protein/mL. […] The amounts of conjugated dienes were measured by determining the increased absorbance at 234 nm at 10 min intervals for a course span of 720 min using a Tecan Ultra Spectrophotometer (Tecan, Austria). Results were expressed as the relative absorbance at 234 nm. The lag phase, oxidation rate, and the maximum quantity of conjugated dienes were calculated. Results are reported as the mean±SD of three trials for each test. Differential between groups was calculated using the Student's t-test (XLSTAT 2008, Addinsoft™, USA), and the statistical significance was set at P<0.05.

SMILES: CC(C)c1cc2c(c(O)c1O)[C@@]1(C(=O)O)CCCC(C)(C)[C@@H]1CC2 [carnosic acid]
- pancreatic lipase activity (pancreatic lipase): substantially inhibited
- triglyceride elevation (olive oil-loaded mice): significantly inhibited
- gain of body weight and accumulation of epididymal fat weight (mice fed a high fat diet): reduced
- activation of human PPARγ (human PPARγ): activators

SMILES: Cc1c(C)c2c(c(C)c1O)CCC(C)(C(=O)O)O2 (stereo not shown) [Trolox]
- Lag phase (LDL; 10 μM, mean ± SD, three trials): 180 ± 5.2 min
- Maximum quantity of dienes (LDL; 10 μM, mean ± SD, three trials): 99.0 ± 1.2 nmol/mg of LDL
- Oxidation rate (LDL; 10 μM, mean ± SD, three trials): 80.1 ± 4.1 min⁻¹
- Lag phase (LDL; 100 μM): NC
- Maximum quantity of dienes (LDL; 100 μM): NC
- Oxidation rate (LDL; 100 μM): NC
- inhibition of LDL oxidation (LDL; 100 μM): complete inhibition

SMILES: CC(C)c1cc2c(c(O)c1O)[C@@]13CCCC(C)(C)[C@@H]1C[C@@H]2OC3=O [carnosol]
- pancreatic lipase activity (pancreatic lipase): substantially inhibited
- activation of human PPARγ (human PPARγ): activators
